From patent US10131652B2, “Pyrimidinyloxy benzene derivatives as herbicides” (E. I. DU PONT DE NEMOURS AND COMPANY, priority 2014, dated 2018)
Where two headings read alike, the source gives them in different places.

Experiments:
Assay type in all cases: in vivo
[1] = tested on: ducksalad (Heteranthera limosa); test: Test C flooded paddy test plant response; details: Heteranthera limosa; Flood, 250 g ai/ha; scale of 0 to 100 where 0 is no effect and 100 is complete control; 13 to 15 days; read-out: Ducksalad plant response rating
Outline: (§1)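 Plants grown to 2-leaf stage, flooded 3 cm above soil; compounds applied directly into paddy water, depth kept throughout. Visual rating versus controls after 13 to 15 days in greenhouse, 0 (no effect) to 100 (complete control).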

rice (Oryza sativa) = test: Test C flooded paddy test plant response; details: Oryza sativa; Flood, 250 g ai/ha; scale of 0 to 100 where 0 is no effect and 100 is complete control; 13 to 15 days; read-out: Rice plant response rating
Outline: as §1

[2] = tested on: barnyardgrass (Echinochloa crus-galli); test: Test C flooded paddy test plant response; details: Echinochloa crus-galli; Flood, 250 g ai/ha; scale of 0 to 100 where 0 is no effect and 100 is complete control; 13 to 15 days; read-out: Barnyardgrass plant response rating
Outline: as §1

[3] = tested on: small-flower umbrella sedge (Cyperus difformis); test: Test C flooded paddy test plant response; details: Cyperus difformis; Flood, 250 g ai/ha; scale of 0 to 100 where 0 is no effect and 100 is complete control; 13 to 15 days; read-out: Sedge, Umbrella plant response rating
Outline: as §1

[4] = tested on: giant foxtail (Setaria faberii); test: Test B pre-/postemergence plant response; details: Setaria faberi, 240 h, read-out: Plant response rating, Foxtail, Giant; for pest or weed control at 125 g/ha: 125 g ai/ha; for pest or weed control at 500 g/ha: 500 g ai/ha
Outline: (§2)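 Greenhouse pots, loam/sand soil; compound formulated with surfactant in non-phytotoxic solvent. Preemergence soil spray and postemergence spray at 1–2 leaf stage run simultaneously. Visual injury, 0–100, about 10 days post-treatment.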

corn (Zea mays) = test: Test B pre-/postemergence plant response; details: Zea mays, 240 h; for Corn plant response rating (crop injury, 0 = no effect, 100 = complete kill) at 125 g/ha: 125 g ai/ha; for Corn plant response rating (crop injury, 0 = no effect, 100 = complete kill) at 500 g/ha: 500 g ai/ha
Outline: as §2

[5] = tested on: wheat (Triticum aestivum); test: Test B pre-/postemergence plant response; details: Triticum aestivum, 240 h, read-out: Plant response rating, Wheat; for plant injury at 125 g/ha: 125 g ai/ha; for plant injury at 500 g/ha: 500 g ai/ha
Outline: as §2

[6] = tested on: pigweed (Amaranthus retroflexus); test: Test B pre-/postemergence plant response; details: Amaranthus retroflexus, 240 h, read-out: Plant response rating, Pigweed; for pest or weed control at 125 g/ha: 125 g ai/ha; for pest or weed control at 500 g/ha: 500 g ai/ha
Outline: as §2

[7] = tested on: barnyardgrass (Echinochloa crus-galli); test: Test B pre-/postemergence plant response; details: Echinochloa crus-galli, 240 h, read-out: Plant response rating, Barnyardgrass; for pest or weed control at 125 g/ha: 125 g ai/ha; for pest or weed control at 500 g/ha: 500 g ai/ha
Outline: as §2

[8] = post-emergence, postemergence, 0 to 100 scale, 0 no effect, 100 complete control
[9] = post-emergence, Postemergence, 0 to 100 scale (0 no effect, 100 complete control)
[10] = pre-emergence, Preemergence, 0 to 100 scale where 0 is no effect and 100 is complete control
[11] = pre-emergence, Preemergence, 0 to 100 scale (0 no effect, 100 complete control)

SMILES | pest or weed control at 250 g/ha [1] [%] | plant injury at 250 g/ha (rice (Oryza sativa)) [%] | pest or weed control at 250 g/ha [2] [%] | pest or weed control at 250 g/ha [3] [%] | pest or weed control at 125 g/ha [4, 8] [%] | pest or weed control at 500 g/ha [4, 9] [%] | pest or weed control at 125 g/ha [4, 10] [%] | pest or weed control at 500 g/ha [4, 10] [%] | Corn plant response rating (crop injury, 0 = no effect, 100 = complete kill) at 125 g/ha (corn (Zea mays); [8]) [%] | Corn plant response rating (crop injury, 0 = no effect, 100 = complete kill) at 500 g/ha (corn (Zea mays); [9]) [%] | Corn plant response rating (crop injury, 0 = no effect, 100 = complete kill) at 125 g/ha (corn (Zea mays); [10]) [%] | plant injury at 125 g/ha [5, 8] [%] | plant injury at 500 g/ha [5, 9] [%] | plant injury at 125 g/ha [5, 10] [%] | pest or weed control at 125 g/ha [6, 8] [%] | pest or weed control at 500 g/ha [6, 9] [%] | pest or weed control at 125 g/ha [6, 10] [%] | pest or weed control at 125 g/ha [7, 8] [%] | pest or weed control at 500 g/ha [7, 9] [%] | pest or weed control at 125 g/ha [7, 10] [%] | further results
FC(F)(F)Oc1ccc(-c2ccccc2Oc2ncc(Cl)cn2)cc1 [Compound 42, 5-chloro-2-[[4′-(trifluoromethoxy)[1,1′-biphenyl]-2-yl]oxy]pyrimidine] | 0 | 0 | 0 | 0 | 10 | 30 | 70 | 100 | 20 | 20 | 0 | 0 | 0 | 0 | 60 | 80 | 50 | 20 | 30 | 20 | Corn plant response rating (crop injury, 0 = no effect, 100 = complete kill) at 500 g/ha (corn (Zea mays); [10]): 0%; plant injury at 500 g/ha [5, 10]: 0%; pest or weed control at 500 g/ha [6, 10]: 90%; pest or weed control at 500 g/ha [7, 10]: 70%
FC(F)(F)c1ccnc(-c2ccccc2Oc2ncc(Cl)cn2)c1 [Compound 25, 5-chloro-2-[2-[4-(trifluoromethyl)-2-pyridinyl]phenoxy]pyrimidine] | 30 | 0 | 0 | 20 | 0 | 60 | 40 | 90 | 10 | 30 | 0 | 0 | 10 | 0 | 30 | 90 | 60 | 0 | 30 | 10 | Corn plant response rating (crop injury, 0 = no effect, 100 = complete kill) at 500 g/ha (corn (Zea mays); [10]): 0%; plant injury at 500 g/ha [5, 10]: 0%; pest or weed control at 500 g/ha [6, 10]: 100%; pest or weed control at 500 g/ha [7, 10]: 70%
FC(F)(F)c1nccc(-c2ccccc2Oc2ncc(Br)cn2)n1 [Compound 21, 4-[2-[(5-bromo-2-pyrimidinyl)oxy]phenyl]-2-(trifluoromethyl)pyrimidine] | 0 | 0 | 0 | 0 | 0 | 60 | 70 |  | 0 | 40 | 0 | 0 | 0 | 0 | 80 | 100 | 30 | 0 | 60 | 0 | pest or weed control at 500 g/ha [4, 11]: 100%; Corn plant response rating (crop injury, 0 = no effect, 100 = complete kill) at 500 g/ha (corn (Zea mays); [11]): 0%; plant injury at 500 g/ha [5, 11]: 0%; pest or weed control at 500 g/ha [6, 11]: 90%; pest or weed control at 500 g/ha [7, 11]: 50%
Cc1ccc(Oc2ncc(Cl)cn2)c(-c2ccnc(C(F)(F)F)c2)c1 [Compound 24, 5-chloro-2-[4-methyl-2-[2-(trifluoromethyl)-4-pyridinyl]phenoxy]pyrimidine] | 0 | 0 | 0 | 40 | 30 | 90 | 20 |  | 0 | 40 | 0 | 0 | 0 | 0 | 20 | 40 | 0 | 0 | 60 | 10 | pest or weed control at 500 g/ha [4, 11]: 90%; Corn plant response rating (crop injury, 0 = no effect, 100 = complete kill) at 500 g/ha (corn (Zea mays); [11]): 40%; plant injury at 500 g/ha [5, 11]: 0%; pest or weed control at 500 g/ha [6, 11]: 40%; pest or weed control at 500 g/ha [7, 11]: 80%
FC(F)(F)c1ccc(-c2ccccc2Oc2ncc(Cl)cn2)nc1 [Compound 27, 5-chloro-2-[2-[5-(trifluoromethyl)-2-pyridinyl]phenoxy]pyrimidine] | 30 | 0 | 0 | 40 | 20 | 70 | 60 | 90 | 0 | 30 | 0 | 0 | 0 | 0 | 50 | 100 | 80 | 20 | 50 | 10 | Corn plant response rating (crop injury, 0 = no effect, 100 = complete kill) at 500 g/ha (corn (Zea mays); [10]): 0%; plant injury at 500 g/ha [5, 10]: 0%; pest or weed control at 500 g/ha [6, 10]: 100%; pest or weed control at 500 g/ha [7, 10]: 80%
